Experimental data as given in US12084472B2 (Ardelyx, Inc., priority 2015, dated 2024).

Target: T1, human TGR5 (Homo sapiens, UniProt Q8TDU6)
T1 construct: expressed in transfected cells; host or cells: HEK293
T1 sequence (Q8TDU6 1-330): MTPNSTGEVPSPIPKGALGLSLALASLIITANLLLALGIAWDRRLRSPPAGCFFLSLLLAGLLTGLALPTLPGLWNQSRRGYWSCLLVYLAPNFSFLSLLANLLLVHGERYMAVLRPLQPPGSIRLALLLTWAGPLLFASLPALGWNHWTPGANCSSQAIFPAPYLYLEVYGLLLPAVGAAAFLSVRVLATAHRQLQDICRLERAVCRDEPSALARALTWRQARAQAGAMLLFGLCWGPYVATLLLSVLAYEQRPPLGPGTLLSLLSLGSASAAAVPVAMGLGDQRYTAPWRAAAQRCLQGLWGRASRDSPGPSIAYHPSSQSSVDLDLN
Assay: Cell-based TGR5 assay (cAMP generation, HTRF)
Settings: HEK293 cells stably transfected with human TGR5; cAMP by HTRF; 30 minutes at 37° C.; read-out: pEC50 Human TGR5 (converted)
Description: A primary cell-based assay utilized HEK293 cells stably transfected with a gene encoding human TGR5. Cells were treated with candidate TGR5 activators and assessed for increased intercellular levels of cAMP.
TGR5-mediated cAMP generation was measured using a homogeneous time resolved fluorescence (HTRF) detection method (Cisbio). Test compounds were dissolved in DMSO to a final concentration of 10 mM. Serial 3-fold dilutions of the stock solution were made in DMSO, and these solutions were diluted 100-fold into Hanks Balanced Salt Solution supplemented with 10 mM HEPES pH 7.4, 0.003% Tween 20 and 0.5 mM isobutyl methylxanthine. Five microliters of diluted test compounds were added to wells of a black 384 well plate.
Cells grown overnight at 37° C./5% CO2 were harvested and resuspended in Hanks Balanced Salt Solution containing 10 mM HEPES to a concentration of […]. Five microliters (2500 cells) were dispensed into each well of the 384 well plate containing compound dilutions and incubated at 37° C. for 30 minutes. Each compound was tested in duplicate at 12 concentrations ranging from 0.05 nM to 10 μM.
Following incubation with test compounds, cAMP was detected through the successive addition of 5 μL each of cAMP labeled with the modified allophyocyanin dye d2 (cAMP-d2) and cryptate-labeled anti-cAMP in lysis buffer, and reading HTRF per the manufacturer's instructions.
A standard curve was used to convert the raw HTRF data into [cAMP]. The concentration of cAMP was plotted against log [test compound] and the resulting curves were fit to a 3-parameter logistical equation using GraphPad Prism to determine pEC50 (the negative log of the EC50) and the magnitude of the response.

Compound	EC50 [nM]
COCC(=O)N(CCCCc1cc(Cl)c(COC2(c3cnccc3-c3ccccc3OC3CC3)CC2)cc1Cl)C[C@H](O)[C@@H](O)[C@H](O)[C@H](O)CO [Compound I-72, N-{4-[2,5-dichloro-4-({1-[4-(2-cyclopropoxyphenyl)pyridin-3-yl]cyclopropoxy}methyl)phenyl]butyl}-2-methoxy-N-[(2S,3R,4R,5R)-2,3,4,5,6-pentahydroxyhexyl]acetamide]	< 100
Cc1ccc(CCCCC(=O)N(C)C[C@H](O)[C@@H](O)[C@H](O)[C@H](O)CO)nc1COC1(c2cnccc2-c2ccccc2OC2CC2)CC1 [Compound I-709]	1260 to 10000
CC(CCCN(CCCS(C)(=O)=O)C(=O)[C@@H](O)[C@@H](O)[C@H](O)[C@@H](O)CO)c1ccc(Cl)c(CNC2(c3cnccc3-c3ccccc3OC3CC3)CC2)c1 (stereo partly drawn) [Compound I-292, (2S,3S,4R,5S)-N-(4-{4-chloro-3-[({1-[4-(2-cyclopropoxyphenyl)pyridin-3-yl]cyclopropyl}amino)methyl]phenyl}pentyl)-2,3,4,5,6-pentahydroxy-N-(3-methanesulfonylpropyl)hexanamide]	< 100
O=C(NC[C@H](O)[C@@H](O)[C@H](O)[C@H](O)CO)NC1CN(S(=O)(=O)c2ccc(Cl)c(COC3(c4cnccc4-c4ccccc4OC4CC4)CC3)c2)C1 [Compound I-427, 1-{1-[4-chloro-3-({1-[4-(2-cyclopropoxyphenyl)pyridin-3-yl]cyclopropoxy}methyl)benzenesulfonyl]azetidin-3-yl}-3-[(2S,3R,4R,5R)-2,3,4,5,6-pentahydroxyhexyl]urea]	126 to 1000
CN(C[C@H](O)[C@@H](O)[C@H](O)[C@H](O)CO)C(=O)CC1(CSc2ccc(Cl)c(CNC3(c4cnccc4-c4ccccc4OC4CC4)CC3)c2)CC1 [Compound I-681, 2-{1-[({4-chloro-3-[({1-[4-(2-cyclopropoxyphenyl)pyridin-3-yl]cyclopropyl}amino)methyl]phenyl}sulfanyl)methyl]cyclopropyl}-N-methyl-N-[(2S,3R,4R,5R)-2,3,4,5,6-pentahydroxyhexyl]acetamide]	< 100
CS(=O)(=O)CCN(CCCCNS(=O)(=O)c1ccc(Cl)c(COC2(c3cnccc3-c3ccccc3OC3CC3)CC2)c1)C(=O)[C@@H](O)[C@@H](O)[C@H](O)[C@@H](O)CO [Compound I-457, (2S,3S,4R,5S)-N-{4-[4-chloro-3-({1-[4-(2-cyclopropoxyphenyl)pyridin-3-yl]cyclopropoxy}methyl)benzenesulfonamido]butyl}-2,3,4,5,6-pentahydroxy-N-(2-methanesulfonylethyl) hexanamide]	< 100
Cc1cc(COC2(c3cnccc3-c3ccccc3OC3CC3)CC2)c(Cl)cc1CCCCNC(=O)NCC(=O)NCC(=O)NCC(=O)O [Compound I-111, 2-(2-{2-[({4-[5-chloro-4-({1-[4-(2-cyclopropoxyphenyl)pyridin-3-yl]cyclopropoxy}methyl)-2-methylphenyl]butyl}carbamoyl)amino]acetamido}acetamido)acetic acid]	< 100
O=C(CCCCc1cc(Cl)c(COC2(c3cnccc3-c3ccccc3OC3CC3)CC2)cc1Cl)N(Cc1ccccc1)C[C@@H](O)[C@H](O)[C@H](O)[C@H](O)CO [Compound I-120, N-benzyl-5-(2,5-dichloro-4-((1-(4-(2-cyclopropoxyphenyl)pyridin-3-yl)cyclopropoxy)methyl)phenyl)-N-((2R,3S,4R,5R)-2,3,4,5,6-pentahydroxyhexyl)pentanamide]	126 to 1000
CN(C[C@H](O)[C@@H](O)[C@H](O)[C@H](O)CO)C(=O)c1ccc(CSc2ccc(Cl)c(CNC3(c4cnccc4-c4ccccc4OC4CC4)CC3)c2)cc1 [Compound I-680, 4-[({4-chloro-3-[({1-[4-(2-cyclopropoxyphenyl)pyridin-3-yl]cyclopropyl}amino)methyl]phenyl}sulfanyl)methyl]-N-methyl-N-[(2S,3R,4R,5R)-2,3,4,5,6-pentahydroxyhexyl]benzamide]	126 to 1000
Cc1ccc(C(C)CCCC(=O)N(CCCS(C)(=O)=O)C[C@H](O)[C@@H](O)[C@H](O)[C@H](O)CO)cc1CNC1(c2cnccc2-c2ccccc2OC2CC2)CC1 (stereo partly drawn) [Compound I-370, 5-{3-[({1-[4-(2-cyclopropoxyphenyl)pyridin-3-yl]cyclopropyl}amino)methyl]-4-methylphenyl}-N-(3-methanesulfonylpropyl)-N-[(2S,3R,4R,5R)-2,3,4,5,6-pentahydroxyhexyl]hexanamide]	< 100
O=C(O)CCCC(=O)N(CCCCc1cc(Cl)c(CNC2(c3cnccc3-c3ccccc3OC3CC3)CC2)cc1Cl)C[C@H](O)[C@@H](O)[C@H](O)[C@H](O)CO [Compound I-63, 4-[(4-[2,5-dichloro-4-[([1-[4-(2-cyclopropoxyphenyl)pyridin-3-yl]cyclopropyl]amino)methyl]phenyl]butyl) [(2S,3R,4R,5R)-2,3,4,5,6-pentahydroxyhexyl]carbamoyl]butanoic acid]	126 to 1000
Cc1ccc(SCCCCN(CCOCCO)C(=O)[C@@H](O)[C@@H](O)[C@H](O)[C@@H](O)CO)cc1CNC1(c2cnccc2-c2ccccc2OC2CC2)CC1 [Compound I-549, (2S,3S,4R,5S)-N-[4-({3-[({1-[4-(2-cyclopropoxyphenyl)pyridin-3-yl]cyclopropyl}amino)methyl]-4-methylphenyl}sulfanyl)butyl]-2,3,4,5,6-pentahydroxy-N-[2-(2-hydroxyethoxy)ethyl]hexanamide]	< 100
O=C(NCCCCN(CCO)S(=O)(=O)c1ccc(Cl)c(COC2(c3cnccc3-c3ccccc3OC3CC3)CC2)c1)NC[C@H](O)[C@@H](O)[C@H](O)[C@H](O)CO [Compound I-414, 1-{4-[N-(2-hydroxyethyl)4-chloro-3-({1-[4-(2-cyclopropoxyphenyl)pyridin-3-yl]cyclopropoxy}methyl)benzenesulfonamido]butyl}-3-[(2S,3R,4R,5R)-2,3,4,5,6-pentahydroxyhexyl]urea]	< 100
Cc1ccc(C(C)CCCC(=O)N(CCO)C[C@H](O)[C@@H](O)[C@H](O)[C@H](O)CO)cc1COC1(c2cnccc2-c2ccccc2OC2CC2)CC1 (stereo partly drawn) [Compound I-376, 5-[3-({1-[4-(2-cyclopropoxyphenyl)pyridin-3-yl]cyclopropoxy}methyl)-4-methylphenyl]-N-(2-hydroxyethyl)-N-[(2S,3R,4R,5R)-2,3,4,5,6-pentahydroxyhexyl]hexanamide]	< 100
O=C(NCCCC1(c2ccc(Cl)c(CNC3(c4cnccc4-c4ccccc4OC4CC4)CC3)c2)CC1)[C@@H](O)[C@@H](O)[C@H](O)[C@@H](O)CO [Compound I-382, (2S,3S,4R,5S)-N-[3-(1-[4-chloro-3-[([1-[4-(2-cyclopropoxyphenyl)pyridin-3-yl]cyclopropyl]amino)methyl]phenyl]cyclopropyl)propyl]-2,3,4,5,6-pentahydroxyhexanamide]	< 100
C[C@@H](CCCC(=O)N(C)C[C@H](O)[C@@H](O)[C@H](O)[C@H](O)CO)c1ccc(Cl)c(CNC2(c3cnccc3-c3ccccc3OC3CC3)CC2)c1 (single isomer, unassigned) [Compound I-325]	< 100
Cc1cc(CNC2(c3cnccc3-c3ccccc3OC3CC3)CC2)c(Cl)cn1 [Compound I-34, N-[(5-chloro-2-methylpyridin-4-yl)methyl]-1-[4-(2-cyclopropoxyphenyl)pyridin-3-yl]cyclopropan-1-amine]	< 100
